{"source": "patent US4115385A", "about": "“Antibacterial 3-(5-tetrazolyl) penam compounds” (Pfizer Inc., priority 1977, dated 1978)", "data": [{"test_system": "Streptococcus pyogenes", "test": "In vitro minimum inhibitory concentration (MIC) vs. Strep. pyogenes", "type": "cell-based", "details": "Streptococcus pyogenes, read-out: MIC vs. Strep. pyogenes", "description": "(§1) The antibacterial penam compounds of the instant invention show activity against a wide variety of gram-positive and gram-negative bacteria. […] The broth is inoculated with the bacterial culture, and with the test antibiotic, and then it is incubated overnight. On the next day, the test is read visually. The minimum inhibitory concentration (MIC) is the lowest concentration of antibiotic which prevents turbidity, i.e., which prevents growth of the microorganism. In vitro activities of several of the penam compounds of the invention are presented later in this specification.\n(§2) In Table II, the minimum inhibitory concentrations (MIC's) of compounds of formula I, wherein R^2 is hydrogen, against a strain of Streptococcus pyogenes, are reported; and in Table III, minimum inhibitory concentrations of compounds of formula I, wherein R^2 is hydrogen, against a strain of Staphylococcus aureus, are presented. Because of the tautomeric nature of such tetrazole derivatives, referred to hereinbefore,each of the preparations tested also contains some of the corresponding compound of formula II, wherein R^3 is hydrogen.", "units": {"MIC": "µg/mL"}, "values": [{"smiles": "CC1(C)S[C@@H]2[C@H](NC(=O)[C@H](NC(=O)CSc3ccccc3)c3ccccc3)C(=O)N2[C@H]1c1nnn[nH]1", "MIC": "< 0.1"}, {"smiles": "CC1(C)S[C@@H]2[C@H](NC(=O)Cc3sccc3CN)C(=O)N2[C@H]1c1nnn[nH]1", "note": "[2-(3-aminomethyl-2-thienyl)-acetyl, 6-(2-[3-Aminomethyl-2-thienyl]acetamido)-2,2-dimethyl-3-(5-tetrazolyl)penam]", "MIC": "≤ 0.1"}, {"smiles": "CC1(C)S[C@@H]2[C@H](NC(=O)[C@H](NC(=O)CCN)c3ccccc3)C(=O)N2[C@H]1c1nn[nH]n1", "note": "[D-2-(3-aminopropionamido)-2-phenylacetyl, 6-(D-2-[3-Aminopropionamido]-2-phenylacetamido)-2,2-dimethyl-3-(5-tetrazolyl)penam]", "MIC": "< 0.1"}, {"smiles": "CC1(C)S[C@@H]2[C@H](NC(=O)[C@H](N)c3cccc(N)c3)C(=O)N2[C@H]1c1nnn[nH]1", "note": "[D-2-amino-(3-aminophenyl)acetyl, 6-(D-2-Amino-2-[3-aminophenyl]acetamido)-2,2-dimethyl-3-(5-tetrazolyl)penam]", "MIC": "< 0.1"}, {"smiles": "COc1ccc(C(=N)NC(=O)NCC(=O)N[C@@H]2C(=O)N3[C@@H]2SC(C)(C)[C@@H]3c2nnn[nH]2)cc1", "MIC": 0.1}, {"smiles": "CC1(C)S[C@@H]2[C@H](NC(=O)[C@H](NC(=O)CN)c3ccccc3)C(=O)N2[C@H]1c1nn[nH]n1", "note": "[D-2-(2-aminoacetamido)-2-phenylacetyl, 6-(D-2-[2-Aminoacetamido]-2-phenylacetamido)-2,2-dimethyl-3-(5-tetrazolyl)penam]", "MIC": "< 0.1"}, {"smiles": "CC1(C)S[C@@H]2[C@H](NC(=O)[C@H](NC(=O)CNC(=O)NC(=N)Cc3ccc(Cl)cc3)c3ccccc3)C(=O)N2[C@H]1c1nnn[nH]1", "MIC": "< 0.1"}, {"smiles": "CC(=O)NCCC(=O)N[C@@H](C(=O)N[C@@H]1C(=O)N2[C@@H]1SC(C)(C)[C@@H]2c1nnn[nH]1)c1ccccc1", "MIC": "< 0.1"}, {"smiles": "CCCC(=O)NCC(=O)N[C@@H](C(=O)N[C@@H]1C(=O)N2[C@@H]1SC(C)(C)[C@@H]2c1nnn[nH]1)c1ccccc1", "MIC": "< 0.1"}, {"smiles": "CC1(C)S[C@@H]2[C@H](NC(=O)[C@H](NC(=S)Nc3ccccc3)c3ccccc3)C(=O)N2[C@H]1c1nnn[nH]1", "note": "[D-2-(3-phenylthioureido)-2-phenylacetyl, 6-(D-2-[3-Phenylthioureido]-2-phenylacetamide)-2,2-dimethyl-3-(5-tetrazol)penam]", "MIC": "< 0.1"}, {"smiles": "CC1(C)S[C@@H]2[C@H](NC(=O)[C@H](NC(=O)Nc3ccc(Cl)cc3)c3ccccc3)C(=O)N2[C@H]1c1nnn[nH]1", "MIC": "< 0.1"}, {"smiles": "CC1(C)S[C@@H]2[C@H](NC(=O)[C@H](NC(=O)Cc3ccccc3)c3ccccc3)C(=O)N2[C@H]1c1nnn[nH]1", "note": "[D-2-(2-phenylacetamido)-2-phenylacetyl]", "MIC": "< 0.1"}, {"smiles": "CC1(C)S[C@@H]2[C@H](NC(=O)[C@H](NC(=O)CNC(=N)c3nc4ccccc4s3)c3ccccc3)C(=O)N2[C@H]1c1nnn[nH]1", "MIC": "< 0.1"}, {"smiles": "CC1(C)S[C@@H]2[C@H](NC(=O)C(C(=O)O)c3cccs3)C(=O)N2[C@H]1c1nnn[nH]1", "note": "(stereo partly drawn) [2-carboxy-2-(2-thienyl)acetyl, 6-(2-Carboxy-2-[2-thienyl]acetamido)-2,2-dimethyl-3-(5-tetrazolyl)penam]", "MIC": 0.1}, {"smiles": "CC1(C)S[C@@H]2[C@H](NC(=O)[C@H](NC(=O)NC(=O)c3cc(Br)cc(Br)c3)c3ccccc3)C(=O)N2[C@H]1c1nn[nH]n1", "MIC": "< 0.1"}, {"smiles": "CC1(C)S[C@@H]2[C@H](NC(=O)[C@H](NC(N)=O)c3ccccc3)C(=O)N2[C@H]1c1nn[nH]n1", "note": "[D-2-ureido-2-phenylacetyl, 6-(D-2-Ureido-2-phenylacetamido)-2,2-dimethyl-3-(5-tetrazolyl)-penam]", "MIC": 0.1}]}, {"test_system": "Streptococcus pyogenes", "test": "In vitro minimum inhibitory concentration (MIC) vs. Strep. pyogenes", "type": "cell-based", "details": "Streptococcus pyogenes; Examples; read-out: MIC against Strep. pyogenes", "description": "as §1, §2", "units": {"MIC": "µg/mL"}, "values": [{"smiles": "CC1(C)S[C@@H]2[C@H](NC(=O)[C@H](NC(=O)Nc3ccccc3)c3ccc(O)cc3)C(=O)N2[C@H]1c1nnn[nH]1", "note": "[6-(2-[3-Phenylureido]-2-[p-hydroxyphenyl]acetamido)-2,2-dimethyl-3-(5-tetrazolyl)penam]", "MIC": "< 0.1"}]}, {"test_system": "Streptococcus pyogenes", "test": "In vitro minimum inhibitory concentration (MIC) vs. Strep. pyogenes", "type": "cell-based", "details": "Streptococcus pyogenes; Table II; two-fold serial dilution, Brain-Heart Infusion broth, overnight; read-out: MIC vs. Strep. pyogenes", "description": "as §1, §2", "units": {"MIC": "µg/mL"}, "values": [{"smiles": "CC1(C)S[C@@H]2[C@H](NC(=O)C(N)c3ccc(N)cc3)C(=O)N2[C@H]1c1nnn[nH]1", "note": "(stereo partly drawn) [2-amino-2-(4-aminophenyl)acetyl]", "MIC": 0.039}, {"smiles": "CC1(C)S[C@@H]2[C@H](NC(=O)[C@H](NC(=O)COCC(=O)O)c3ccccc3)C(=O)N2[C@H]1c1nnn[nH]1", "note": "[6-(D-2-[Carboxymethoxy]acetamido-2-phenylacetamido)-2,2-dimethyl-3-(5-tetrazolyl)penam]", "MIC": 0.2}, {"smiles": "CC1(C)S[C@@H]2[C@H](NC(=O)[C@H](NC(=O)c3ccc([N+](=O)[O-])cc3)c3ccccc3)C(=O)N2[C@H]1c1nn[nH]n1", "note": "[D-2-(4-nitrobenzamido)-2-phenylacetyl, 6-(D-2-[4-nitrobenzamido]-2-phenylacetamido)-2,2-dimethyl-3-(5-tetrazolyl)penam]", "MIC": 0.004}, {"smiles": "CCCCN=C(NCCCC)SCC(=O)N[C@@H](C(=O)N[C@@H]1C(=O)N2[C@@H]1SC(C)(C)[C@@H]2c1nn[nH]n1)c1ccccc1", "MIC": 0.004}, {"smiles": "CC1(C)S[C@@H]2[C@H](NC(=O)[C@H](N)c3ccco3)C(=O)N2[C@H]1c1nnn[nH]1", "note": "[D-2-amino-2-(2-furyl)acetyl]", "MIC": 0.39}, {"smiles": "CC1(C)S[C@@H]2[C@H](NC(=O)[C@H](NC(=O)CCNC(=N)c3cc[n+]([O-])cc3)c3ccccc3)C(=O)N2[C@H]1c1nnn[nH]1", "MIC": 3.12}, {"smiles": "CC(=O)C(C(=O)NC1C(=O)N2C(c3nnn[nH]3)C(C)(C)S[C@H]12)c1ccccc1", "note": "(stereo partly drawn) [D-2-acetyl-2-phenylacetyl, 6-(2-Acetyl-2-phenylacetamido)-2,2-dimethyl-3-(5-tetrazolyl)penam]", "MIC": 0.004}, {"smiles": "CC1(C)S[C@@H]2[C@H](NC(=O)CSc3ccccc3)C(=O)N2[C@H]1c1nnn[nH]1", "note": "[2-(phenylthio)acetyl, 6-(2-[phenylthio]acetamido)-2,2-dimethyl-3-(5-tetrazolyl)penam]", "MIC": 0.78}, {"smiles": "CC1(C)S[C@@H]2[C@H](NC(=O)[C@H](NC(=O)CNC(=N)c3cc(Cl)cc(C#N)c3)c3ccccc3)C(=O)N2[C@H]1c1nnn[nH]1", "MIC": 0.004}, {"smiles": "CC1(C)S[C@@H]2[C@H](NC(=O)[C@H](NC(=S)NC(=O)c3ccccc3)c3ccccc3)C(=O)N2[C@H]1c1nn[nH]n1", "note": "[2-(3-benzoylthioureido)-2-phenylacetyl]", "MIC": 1.56}, {"smiles": "CC1(C)S[C@@H]2[C@H](NC(=O)[C@H](NC(=O)C(=O)Oc3ccccc3)c3ccccc3)C(=O)N2[C@H]1c1nnn[nH]1", "MIC": 25}, {"smiles": "CC1(C)S[C@@H]2[C@H](NC(=O)[C@@H](N)Cc3ccc(O)cc3)C(=O)N2[C@H]1c1nn[nH]n1", "note": "[L-2-amino-3-(p-hydroxyphenyl)propionyl, 6-(L-2-amino-3-[4-hydroxyphenyl]propionamido)-2,2-dimethyl-3-(5-tetrazoyl)penam]", "MIC": 0.2}, {"smiles": "CC1(C)S[C@@H]2[C@H](NC(=O)[C@H](NC(=O)CNC(=N)Cc3ccc(Cl)cc3)c3ccccc3)C(=O)N2[C@H]1c1nnn[nH]1", "MIC": 0.2}, {"smiles": "CC1(C)S[C@@H]2[C@H](NC(=O)[C@H](NC(=O)CSc3ncc[nH]3)c3ccccc3)C(=O)N2[C@H]1c1nn[nH]n1", "MIC": 0.2}]}, {"test_system": "Streptococcus pyogenes", "test": "In vitro minimum inhibitory concentration (MIC) vs. Strep. pyogenes", "type": "cell-based", "details": "Streptococcus pyogenes; Table IV; read-out: MIC vs. Strep. pyogenes", "description": "as §1, §2", "units": {"MIC": "µg/mL"}, "values": [{"smiles": "CC1(C)S[C@@H]2[C@H](N=CN3CCCCCC3)C(=O)N2[C@H]1c1nnn[nH]1", "note": "[6-([Hexahydro-1-azepinyl]methyleneamino)-2,2-dimethyl-3-(5-tetrazolyl)penam]", "MIC": 50}, {"smiles": "CC1(C)S[C@@H]2[C@H](N3CN[C@H](c4ccccc4)C3=O)C(=O)N2[C@H]1c1nnn[nH]1", "note": "[6-(5-Oxo-4-phenyl-1-imidazolidinyl)-2,2-dimethyl-3-(5-tetrazolyl)penam]", "MIC": 6.25}]}]}
